# The source made the active and inactive calls.
# Tests used:
# [1] = target: T1, Sentrin-specific protease 8 (Homo sapiens, UniProt Q96LD8); type: functional;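 further: luminescence read-out of SENP8 inhibition, dose-response confirmation following an ultra-high-throughput screen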
# T1 sequence (Q96LD8 whole entry): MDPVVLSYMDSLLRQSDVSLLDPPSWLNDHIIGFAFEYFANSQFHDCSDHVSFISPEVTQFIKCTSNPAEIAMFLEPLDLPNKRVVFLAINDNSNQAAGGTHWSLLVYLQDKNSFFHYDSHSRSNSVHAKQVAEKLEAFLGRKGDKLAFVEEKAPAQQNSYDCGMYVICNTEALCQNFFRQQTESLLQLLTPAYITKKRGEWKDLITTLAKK
# [2] = target: T2, Sentrin-specific protease 6 (Homo sapiens, UniProt Q9GZR1); type: functional;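 further: Luminescence-based dose-response confirmatory assay of SENP6 inhibition, following up an ultra-high-throughput screen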
# T2 sequence (Q9GZR1 whole entry): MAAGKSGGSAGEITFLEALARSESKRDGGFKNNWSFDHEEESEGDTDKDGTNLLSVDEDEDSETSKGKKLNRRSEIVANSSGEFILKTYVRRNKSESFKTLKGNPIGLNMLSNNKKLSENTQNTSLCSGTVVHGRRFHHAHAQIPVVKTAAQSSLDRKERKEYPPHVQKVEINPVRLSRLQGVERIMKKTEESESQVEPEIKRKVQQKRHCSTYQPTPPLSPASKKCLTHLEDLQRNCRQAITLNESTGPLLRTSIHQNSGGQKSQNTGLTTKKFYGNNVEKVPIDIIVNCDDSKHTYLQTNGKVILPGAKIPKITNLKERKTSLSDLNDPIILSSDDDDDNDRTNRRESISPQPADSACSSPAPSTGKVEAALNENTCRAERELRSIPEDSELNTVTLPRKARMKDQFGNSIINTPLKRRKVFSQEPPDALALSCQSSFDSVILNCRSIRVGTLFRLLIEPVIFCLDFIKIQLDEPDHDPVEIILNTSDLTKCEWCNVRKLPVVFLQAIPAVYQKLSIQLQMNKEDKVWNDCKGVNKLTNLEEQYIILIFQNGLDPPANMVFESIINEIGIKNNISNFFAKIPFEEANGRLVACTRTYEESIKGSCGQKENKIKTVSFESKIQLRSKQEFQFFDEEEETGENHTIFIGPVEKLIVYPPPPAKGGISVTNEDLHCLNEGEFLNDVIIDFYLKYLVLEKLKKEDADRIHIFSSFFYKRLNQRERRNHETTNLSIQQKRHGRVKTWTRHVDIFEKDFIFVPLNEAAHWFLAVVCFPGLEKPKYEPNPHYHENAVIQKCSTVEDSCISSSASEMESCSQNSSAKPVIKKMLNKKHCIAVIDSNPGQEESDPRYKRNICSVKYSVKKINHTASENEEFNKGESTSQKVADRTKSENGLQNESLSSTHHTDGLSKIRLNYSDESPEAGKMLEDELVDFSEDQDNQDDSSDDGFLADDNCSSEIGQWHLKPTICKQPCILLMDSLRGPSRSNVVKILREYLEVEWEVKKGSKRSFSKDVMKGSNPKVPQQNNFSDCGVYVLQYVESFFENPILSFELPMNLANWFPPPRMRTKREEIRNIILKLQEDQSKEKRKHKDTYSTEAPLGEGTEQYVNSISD
# Caspase-3 = target: T3, Caspase-3 (Homo sapiens, UniProt P42574); type: functional;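 further: Dose-response selectivity test against caspase-3 for candidate inhibitors of sentrin-specific proteases (SENPs)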
# T3 sequence (P42574 whole entry): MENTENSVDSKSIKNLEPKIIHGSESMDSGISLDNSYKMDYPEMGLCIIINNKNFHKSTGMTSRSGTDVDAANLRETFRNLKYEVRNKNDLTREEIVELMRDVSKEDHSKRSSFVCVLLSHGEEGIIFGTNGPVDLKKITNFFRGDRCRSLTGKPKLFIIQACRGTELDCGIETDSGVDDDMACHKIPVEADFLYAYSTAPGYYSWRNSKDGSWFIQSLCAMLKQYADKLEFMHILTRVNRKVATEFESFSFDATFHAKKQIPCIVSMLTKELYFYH
# [3] = target: T4, Sentrin-specific protease 7 (Homo sapiens, UniProt Q9BQF6); type: functional;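 further: Luminescence-based dose-response confirmation of ultra-high-throughput screening hits, measuring inhibition of SENP7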
# T4 sequence (Q9BQF6 whole entry): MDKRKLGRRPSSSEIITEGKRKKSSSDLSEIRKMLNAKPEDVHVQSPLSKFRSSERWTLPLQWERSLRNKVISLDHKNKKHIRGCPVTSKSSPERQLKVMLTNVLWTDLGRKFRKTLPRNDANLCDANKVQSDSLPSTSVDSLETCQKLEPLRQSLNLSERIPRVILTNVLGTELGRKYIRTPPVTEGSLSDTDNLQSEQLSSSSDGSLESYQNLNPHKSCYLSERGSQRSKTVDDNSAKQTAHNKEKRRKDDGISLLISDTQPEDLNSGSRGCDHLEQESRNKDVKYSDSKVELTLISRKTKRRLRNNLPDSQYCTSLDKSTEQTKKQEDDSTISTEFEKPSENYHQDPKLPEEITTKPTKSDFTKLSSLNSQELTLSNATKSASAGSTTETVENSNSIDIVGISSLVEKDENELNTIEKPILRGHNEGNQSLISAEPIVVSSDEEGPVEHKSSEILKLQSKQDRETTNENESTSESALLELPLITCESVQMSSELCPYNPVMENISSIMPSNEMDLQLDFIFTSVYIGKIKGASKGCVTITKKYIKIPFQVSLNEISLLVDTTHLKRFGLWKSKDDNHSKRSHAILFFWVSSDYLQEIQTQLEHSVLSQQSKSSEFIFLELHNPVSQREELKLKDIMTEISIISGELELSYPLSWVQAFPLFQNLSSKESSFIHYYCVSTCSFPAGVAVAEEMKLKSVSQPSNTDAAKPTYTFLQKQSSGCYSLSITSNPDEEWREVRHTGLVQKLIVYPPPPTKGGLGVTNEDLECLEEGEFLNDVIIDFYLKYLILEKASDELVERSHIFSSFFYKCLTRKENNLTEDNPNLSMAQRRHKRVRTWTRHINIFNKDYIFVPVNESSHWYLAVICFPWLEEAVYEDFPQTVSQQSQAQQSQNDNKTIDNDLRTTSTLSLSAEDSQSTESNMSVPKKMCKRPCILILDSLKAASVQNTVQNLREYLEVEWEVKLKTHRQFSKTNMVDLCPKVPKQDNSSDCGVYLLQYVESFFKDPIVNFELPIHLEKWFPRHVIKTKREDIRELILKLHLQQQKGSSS
# [4] = target: Potassium voltage-gated channel subfamily KQT member 2 (Rattus norvegicus, UniProt O88943); assay: retigabine-insensitive KCNQ2 potentiators, concentration-response, dose response, cell-based, retigabine-insensitive compounds (AID 2654); type: functional
# Potassium voltage-gated channel subfamily KQT member 2, sequence (O88943 whole entry, the tested form may be a part): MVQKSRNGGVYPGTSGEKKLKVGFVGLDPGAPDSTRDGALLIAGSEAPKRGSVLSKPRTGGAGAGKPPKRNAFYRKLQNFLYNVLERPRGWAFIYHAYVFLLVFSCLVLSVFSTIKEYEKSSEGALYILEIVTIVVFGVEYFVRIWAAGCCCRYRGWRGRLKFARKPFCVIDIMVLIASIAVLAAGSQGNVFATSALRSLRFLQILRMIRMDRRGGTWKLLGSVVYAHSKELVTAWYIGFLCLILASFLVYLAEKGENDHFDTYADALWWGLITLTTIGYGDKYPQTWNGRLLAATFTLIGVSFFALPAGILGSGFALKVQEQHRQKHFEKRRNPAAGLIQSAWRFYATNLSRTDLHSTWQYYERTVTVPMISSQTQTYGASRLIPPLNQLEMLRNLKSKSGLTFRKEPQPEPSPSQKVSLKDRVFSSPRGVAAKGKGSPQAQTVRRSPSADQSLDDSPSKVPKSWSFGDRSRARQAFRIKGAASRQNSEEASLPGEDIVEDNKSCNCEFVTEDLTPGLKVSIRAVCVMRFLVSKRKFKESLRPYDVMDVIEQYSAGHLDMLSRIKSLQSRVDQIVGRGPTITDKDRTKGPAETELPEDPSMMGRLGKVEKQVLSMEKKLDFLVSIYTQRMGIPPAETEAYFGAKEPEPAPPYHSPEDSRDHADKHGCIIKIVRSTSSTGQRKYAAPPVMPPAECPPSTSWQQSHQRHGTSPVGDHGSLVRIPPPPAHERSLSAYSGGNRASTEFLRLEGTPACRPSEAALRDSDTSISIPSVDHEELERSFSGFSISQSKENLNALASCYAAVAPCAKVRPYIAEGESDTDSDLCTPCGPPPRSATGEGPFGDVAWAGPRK
# [5] = target: 1-acylglycerol-3-phosphate O-acyltransferase ABHD5/Perilipin-5 (Homo sapiens, UniProt Q00G26+Q8WTS1); assay: Luminescence-based biochemical high throughput dose response assay for inhibitors of the interaction of the lipase co-activator protein, abhydrolase domain containing 5 (ABHD5) with perilipin-5 (MLDP; PLIN5) (2K validation set). [Related pubchem assays (depositor defined):AID493035, AID493241]
# 1-acylglycerol-3-phosphate O-acyltransferase ABHD5/Perilipin-5, sequence (Q00G26 whole entry, the tested form may be a part): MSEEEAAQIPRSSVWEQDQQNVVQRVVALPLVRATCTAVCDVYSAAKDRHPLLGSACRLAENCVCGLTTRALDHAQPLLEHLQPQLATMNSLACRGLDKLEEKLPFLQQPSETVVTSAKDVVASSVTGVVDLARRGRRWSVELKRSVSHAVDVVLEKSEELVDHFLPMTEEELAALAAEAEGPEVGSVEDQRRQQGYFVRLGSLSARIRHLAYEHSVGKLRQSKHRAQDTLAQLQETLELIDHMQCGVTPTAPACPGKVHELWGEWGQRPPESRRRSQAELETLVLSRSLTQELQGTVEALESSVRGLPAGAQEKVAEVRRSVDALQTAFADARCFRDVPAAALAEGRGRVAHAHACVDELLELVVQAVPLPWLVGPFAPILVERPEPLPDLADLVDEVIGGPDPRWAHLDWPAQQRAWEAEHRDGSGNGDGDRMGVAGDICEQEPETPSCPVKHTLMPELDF
# 1-acylglycerol-3-phosphate O-acyltransferase ABHD5/Perilipin-5, sequence (Q8WTS1 whole entry, the tested form may be a part): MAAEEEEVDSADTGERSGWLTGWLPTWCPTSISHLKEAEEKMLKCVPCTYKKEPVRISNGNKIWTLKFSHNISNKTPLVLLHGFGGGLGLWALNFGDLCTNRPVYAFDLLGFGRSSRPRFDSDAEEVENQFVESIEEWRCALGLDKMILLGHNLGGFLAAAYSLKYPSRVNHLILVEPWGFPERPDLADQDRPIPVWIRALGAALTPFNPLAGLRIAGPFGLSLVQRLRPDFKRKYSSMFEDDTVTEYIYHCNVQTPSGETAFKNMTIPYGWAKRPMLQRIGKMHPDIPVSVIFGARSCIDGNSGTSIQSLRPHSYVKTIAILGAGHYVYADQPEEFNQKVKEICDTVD
# [6] = growth suppression of beta-catenin-knockout colon cells, dose response, cell-based, HCT116, human colon tumor (AID 1045); type: functional;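 further: HCT116 colon tumor cells with beta catenin knocked out; cells exposed to compound for 60 hours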
# Vero [7] = assay: cells; type: functional; conditions: Chlorocebus sabaeus
# Perilipin-1/ABHD5 = Perilipin-1/ABHD5 (Homo sapiens, UniProt O60240+Q8WTS1); assay: Luminescence-based biochemical high throughput dose response assay for inhibitors of the interaction of the lipase co-activator protein, abhydrolase domain containing 5 (ABHD5) with perilipin-1 (PLIN1) (2K validation set). [Related pubchem assays (depositor defined):AID493027, AID493057]
# Perilipin-1/ABHD5, sequence (Q8WTS1 whole entry, the tested form may be a part): as above
# Perilipin-1/ABHD5, sequence (O60240 whole entry, the tested form may be a part): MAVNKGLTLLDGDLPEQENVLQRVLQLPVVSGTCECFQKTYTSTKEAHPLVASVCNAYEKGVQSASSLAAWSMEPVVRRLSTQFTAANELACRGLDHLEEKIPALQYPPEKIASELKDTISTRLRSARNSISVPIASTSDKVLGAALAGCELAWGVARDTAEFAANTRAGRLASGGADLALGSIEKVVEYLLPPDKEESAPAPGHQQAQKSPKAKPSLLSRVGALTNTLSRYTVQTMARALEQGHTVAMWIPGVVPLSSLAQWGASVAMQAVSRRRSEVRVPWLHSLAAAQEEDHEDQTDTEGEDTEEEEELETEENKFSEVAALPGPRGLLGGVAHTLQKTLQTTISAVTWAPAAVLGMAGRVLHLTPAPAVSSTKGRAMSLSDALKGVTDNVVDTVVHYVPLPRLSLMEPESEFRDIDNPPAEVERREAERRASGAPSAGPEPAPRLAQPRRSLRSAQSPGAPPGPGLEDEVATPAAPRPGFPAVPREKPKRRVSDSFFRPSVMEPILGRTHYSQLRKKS
# [8] = target: T5, Heat shock factor protein 1 (Mus musculus, UniProt P38532); assay: HSF1 potentiators in luciferase reporter cells, confirmation, cell-based, NIH3T3, luminescence, dose retest (AID 435004); type: functional;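 further: stress induced by proteasome inhibitor MG132 added 30 min after compound; luciferase reporter driven by HSF1 response element in NIH3T3 cells; actives raise luminescence as potentiators of the MG132 stress response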
# T5 sequence (P38532 whole entry): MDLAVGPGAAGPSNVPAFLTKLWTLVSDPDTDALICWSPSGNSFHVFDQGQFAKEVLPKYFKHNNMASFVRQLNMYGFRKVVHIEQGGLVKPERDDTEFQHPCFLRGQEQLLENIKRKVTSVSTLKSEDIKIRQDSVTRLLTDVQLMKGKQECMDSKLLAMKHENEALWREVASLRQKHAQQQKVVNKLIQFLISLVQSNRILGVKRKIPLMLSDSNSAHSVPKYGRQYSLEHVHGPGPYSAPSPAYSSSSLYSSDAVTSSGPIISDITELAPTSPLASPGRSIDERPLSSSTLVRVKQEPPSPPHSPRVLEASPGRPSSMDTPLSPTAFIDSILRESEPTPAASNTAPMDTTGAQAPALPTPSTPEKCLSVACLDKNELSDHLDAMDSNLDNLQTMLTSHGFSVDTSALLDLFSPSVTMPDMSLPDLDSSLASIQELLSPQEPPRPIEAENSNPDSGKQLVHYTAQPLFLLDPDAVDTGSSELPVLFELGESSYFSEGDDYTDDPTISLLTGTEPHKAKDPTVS
# [9] = growth suppression of PTEN-null colon cells, dose response, cell-based, HCT116 PTEN knockout (AID 1047); type: functional;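 further: HCT116 colon tumor cells with PTEN knocked out; cells exposed to compound for 60 hours before readout; potency for loss of cell viability measured by luminescence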
# Importin subunit alpha-1 = Importin subunit alpha-1 (Homo sapiens, UniProt P52292); assay: YIC FRET probe signal interference, dose response, counter-screen for RanGTP-importin-beta inhibitor project, biochemical, dry powder samples (AID 493094); type: functional
# [10] = target: DNA dC->dU-editing enzyme APOBEC-3A (Homo sapiens, UniProt P31941); assay: APOBEC3A DNA deaminase inhibitors, dose response, biochemical (AID 504722); type: functional
# DNA dC->dU-editing enzyme APOBEC-3A, sequence (P31941 whole entry): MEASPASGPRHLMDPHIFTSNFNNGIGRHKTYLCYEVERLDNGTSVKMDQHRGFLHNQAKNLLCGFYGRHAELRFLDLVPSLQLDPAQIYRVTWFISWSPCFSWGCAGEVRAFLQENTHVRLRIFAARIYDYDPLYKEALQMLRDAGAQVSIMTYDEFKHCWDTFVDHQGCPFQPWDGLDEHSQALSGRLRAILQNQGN
# [11] = target: DNA dC->dU-editing enzyme APOBEC-3G (Homo sapiens, UniProt Q9HC16); assay: Dose Response confirmation of small molecule APOBEC3G DNA Deaminase Inhibitors via a fluorescence-based single-stranded DNA deaminase assay. [Related pubchem assays (depositor defined):AID493012, AID493028]; type: functional
# DNA dC->dU-editing enzyme APOBEC-3G, sequence (Q9HC16 whole entry): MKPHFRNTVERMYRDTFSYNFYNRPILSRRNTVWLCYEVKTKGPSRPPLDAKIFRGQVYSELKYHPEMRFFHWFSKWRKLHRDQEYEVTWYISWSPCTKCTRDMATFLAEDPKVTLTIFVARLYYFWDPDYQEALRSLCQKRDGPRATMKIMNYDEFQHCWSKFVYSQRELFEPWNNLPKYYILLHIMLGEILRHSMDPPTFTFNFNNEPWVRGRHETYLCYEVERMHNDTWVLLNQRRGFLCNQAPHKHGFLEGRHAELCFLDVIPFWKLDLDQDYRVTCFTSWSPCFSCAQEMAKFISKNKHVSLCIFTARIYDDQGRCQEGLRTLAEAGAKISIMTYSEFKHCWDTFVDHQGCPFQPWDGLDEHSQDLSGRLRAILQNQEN
# Integrin alpha-L = Integrin alpha-L (Mus musculus, UniProt P24063); assay: modulators of CD8 T cell-vesicle binding, dose response, powder samples, mouse 2C CD8+ cells (AID 504565); type: functional
# Beta-galactosidase [12] = target: T6, Beta-galactosidase (Escherichia coli, UniProt Q8VNN2); assay: PubChem AID 485352; type: functional
# T6 sequence (Q8VNN2 whole entry): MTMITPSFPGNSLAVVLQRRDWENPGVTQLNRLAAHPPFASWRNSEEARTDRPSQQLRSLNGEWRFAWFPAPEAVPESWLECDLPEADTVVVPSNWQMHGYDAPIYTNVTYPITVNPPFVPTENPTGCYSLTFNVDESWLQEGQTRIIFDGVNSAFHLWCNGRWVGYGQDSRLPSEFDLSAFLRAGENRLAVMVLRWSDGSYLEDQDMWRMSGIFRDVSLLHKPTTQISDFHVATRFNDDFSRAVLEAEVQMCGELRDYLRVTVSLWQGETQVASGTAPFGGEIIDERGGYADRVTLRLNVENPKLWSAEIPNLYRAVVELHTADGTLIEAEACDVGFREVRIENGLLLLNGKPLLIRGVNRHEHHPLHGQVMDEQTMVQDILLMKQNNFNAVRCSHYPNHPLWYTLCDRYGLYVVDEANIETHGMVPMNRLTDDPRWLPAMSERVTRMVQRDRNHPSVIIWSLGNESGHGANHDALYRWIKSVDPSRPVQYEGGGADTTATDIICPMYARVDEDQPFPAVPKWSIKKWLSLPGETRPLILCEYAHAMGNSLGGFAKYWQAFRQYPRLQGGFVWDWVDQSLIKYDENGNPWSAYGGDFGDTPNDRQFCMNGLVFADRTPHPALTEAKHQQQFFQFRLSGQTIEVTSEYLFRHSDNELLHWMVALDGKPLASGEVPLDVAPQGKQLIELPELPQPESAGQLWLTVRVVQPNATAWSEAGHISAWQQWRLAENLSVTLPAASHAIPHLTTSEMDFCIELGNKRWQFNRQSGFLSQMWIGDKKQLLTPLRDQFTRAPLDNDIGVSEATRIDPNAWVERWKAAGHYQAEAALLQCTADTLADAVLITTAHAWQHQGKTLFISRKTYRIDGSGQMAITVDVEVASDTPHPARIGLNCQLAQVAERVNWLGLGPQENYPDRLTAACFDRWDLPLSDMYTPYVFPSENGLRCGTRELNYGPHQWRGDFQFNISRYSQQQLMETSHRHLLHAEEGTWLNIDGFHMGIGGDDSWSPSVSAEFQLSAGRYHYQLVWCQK
# [13] = inhibitors of SNCA 5'UTR-driven translation, confirmation, luminescence, H4 neuroglioblastoma cells, dose confirmation (AID 2454); type: functional, cell-based;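 further: H4 neuroglioblastoma cells carrying an alpha-synuclein 5'UTR luciferase reporter; potency for inhibition of the luciferase signal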
# Beta-galactosidase [14] = target: T6, Beta-galactosidase; assay: Dose response counterscreen for EBI2 assay utilizing the enzyme, b-galactosidase.; type: functional
# [15] = target: T7, Kappa-type opioid receptor (Homo sapiens, UniProt P41145); type: functional
# T7 sequence (P41145 whole entry): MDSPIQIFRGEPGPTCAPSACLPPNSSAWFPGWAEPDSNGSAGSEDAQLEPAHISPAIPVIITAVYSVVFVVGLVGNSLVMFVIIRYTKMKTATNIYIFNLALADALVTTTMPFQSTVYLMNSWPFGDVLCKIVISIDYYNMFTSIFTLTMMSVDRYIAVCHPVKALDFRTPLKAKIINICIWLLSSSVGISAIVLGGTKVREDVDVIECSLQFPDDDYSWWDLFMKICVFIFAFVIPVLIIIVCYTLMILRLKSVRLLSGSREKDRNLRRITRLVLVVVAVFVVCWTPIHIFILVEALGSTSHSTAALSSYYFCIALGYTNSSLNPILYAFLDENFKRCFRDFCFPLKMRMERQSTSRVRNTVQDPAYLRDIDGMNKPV
# [16] = target: T7, Kappa-type opioid receptor; type: functional; remark: listed apart in the source
# [17] = tested on: Streptococcus sp. 'group A'; assay: growth inhibition of control SK(-) GAS strain, dose response, counter-screen for streptokinase expression inhibitor project, luminescence, kanamycin, BacTiterGlo, confirmation (AID 1900); type: functional, organism-based
# [18] = luciferase reporter signal reduction – luminescence, H4-C neuroglioblastoma cells, dose response (AID 2458); type: functional, cell-based;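 further: H4 neuroglioblastoma cells stably carrying a luciferase reporter gene fusion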
# Vero [19] = assay: cells; type: functional, cell-based; conditions: Chlorocebus sabaeus
# [20] = HepG2 cell cytotoxicity, dose response, cytotoxicity control for non-replicating M. tuberculosis project (AID 489018); type: functional; conditions: Mycobacterium tuberculosis
# [21] = inhibitors of firefly luciferase expression or activity, dose response, H4 neuroglioma cells, luminescence (AID 1990); type: functional, cell-based
# [22] = inhibitors of SNCA 5'UTR-driven reporter translation, confirmation, H4 neuroglioma cells, luminescence (AID 1988); type: functional, cell-based
# cells [23] = type: functional
# [24] = Vero E6 cell cytotoxicity, dose response, cytotoxicity control for non-replicating M. tuberculosis project, secondary assay (AID 492998); type: functional, VeroE6; conditions: Vero C1008
# INS1 = assay: beta cell apoptosis inhibitors, cytokine rescue, dose response, luminescence, retest (AID 449756); type: functional, cell-based; conditions: Rattus norvegicus;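 further: cell death triggered by IL-1 beta plus TNF-alpha plus IFN-gamma mixture; protective hits raise ATP signal compared with cytokine alone wells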
# cells [25] = type: functional, cell-based
# Streptococcus = assay: Group A Streptococcus viability loss, dose response, counter-screen for streptokinase expression inhibitor project, luminescence, BacTiterGlo (AID 1915); type: functional, organism-based;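 further: potency for reduction of bacterial viability or growth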
# [26] = target: Type-1 angiotensin II receptor (Homo sapiens, UniProt P30556); assay: AT1 receptor antagonists, dose response, selectivity assay for APJ receptor antagonist project, cell-based, uHTS hits (AID 463214); type: functional;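 further: antagonist potency against angiotensin II stimulated AT1 response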
# Type-1 angiotensin II receptor, sequence (P30556 whole entry): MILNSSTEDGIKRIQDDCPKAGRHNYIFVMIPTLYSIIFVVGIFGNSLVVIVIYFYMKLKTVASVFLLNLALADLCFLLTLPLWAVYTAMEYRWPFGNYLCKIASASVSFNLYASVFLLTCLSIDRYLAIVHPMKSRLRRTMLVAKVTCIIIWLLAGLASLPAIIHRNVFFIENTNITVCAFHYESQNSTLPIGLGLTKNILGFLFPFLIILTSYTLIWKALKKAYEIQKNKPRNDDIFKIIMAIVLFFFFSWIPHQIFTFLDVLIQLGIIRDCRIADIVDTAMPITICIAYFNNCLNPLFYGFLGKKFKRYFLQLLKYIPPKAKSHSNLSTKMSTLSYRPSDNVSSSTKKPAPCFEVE
# Beta-galactosidase [27] = target: T6, Beta-galactosidase; type: functional
# [28] = THP-1 cell cytotoxicity, dose response, cytotoxicity control for non-replicating M. tuberculosis project (AID 489025); type: functional
# Nonstructural protein 1 = Nonstructural protein 1 (Influenza A virus, UniProt Q194T2); type: functional, Influenza A virus (A/California/07/2009(H1N1))
# Nonstructural protein 1, sequence (Q194T2 whole entry): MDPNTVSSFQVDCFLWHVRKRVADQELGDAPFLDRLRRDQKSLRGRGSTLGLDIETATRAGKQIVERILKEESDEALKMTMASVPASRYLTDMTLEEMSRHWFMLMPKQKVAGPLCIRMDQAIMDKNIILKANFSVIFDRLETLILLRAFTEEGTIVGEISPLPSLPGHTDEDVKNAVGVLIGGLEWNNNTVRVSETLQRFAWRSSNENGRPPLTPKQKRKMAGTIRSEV
compound,measurement,setting,value
CCCCc1ccc(NC(=O)Nc2cccnc2)cc1,IC50,[1],16.8 µM (active)
same,IC50,[2],14.1 µM (active)
same,IC50,Caspase-3,22.7 µM (active)
same,IC50,[3],5.08 µM (active)
same,EC50,[4],13.7 µM (active)
O=C(/C=C/Sc1ccccc1)c1ccccc1,IC50,[5],3.91 µM (active)
same,EC50,[6],28.4 µM (active)
same,CC50,Vero [7],23.6 µM (active)
same,IC50,Perilipin-1/ABHD5,3.91 µM (active)
same,EC50,[8],5.83 µM (active)
same,EC50,[9],27.7 µM (active)
CSc1ccc(/C=C(/Sc2nnc(-c3ccccc3)o2)C(=O)O)cc1,AC50,Importin subunit alpha-1,116 µM (active)
CCc1c(C)nc(S)c(C#N)c1C,IC50,[10],> 100 µM (inactive)
same,IC50,[11],6 µM (active)
O=C(c1ccc(N2C(=O)C3CC=C(Cl)CC3C2=O)cc1)N1CCCCC1 (stereo unspecified),EC50,Integrin alpha-L,9.02 µM (active)
C/C(=N\NC(=O)c1cccc(Br)c1)c1ccccn1,EC50,Beta-galactosidase [12],> 40 µM (inactive)
same,EC50,[13],0.895 µM (active)
same,IC50,Beta-galactosidase [14],> 80 µM (inactive)
same,CC50,Vero [7],1.78 µM (active)
same,IC50,[15],1.82 µM (active)
same,IC50,[16],> 32 µM
same,EC50,[17],1.29 µM (active)
same,EC50,[18],0.714 µM (active)
same,IC50,Vero [19],> 25 µM (active)
same,CC50,[20],2.71 µM (active)
same,EC50,[21],30 µM (active)
same,EC50,[22],< 0.1 µM (active)
same,IC50,cells [23],0.57 µM (active)
same,CC50,[24],1.03 µM (active)
same,AC50,INS1,0.315 µM (active)
same,EC50,cells [25],0.966 µM (active)
same,EC50,Streptococcus,4.74 µM (active)
same,IC50,[26],3.51 µM (active)
same,EC50,Beta-galactosidase [27],> 31.5 µM (inactive)
same,CC50,[28],0.584 µM (active)
same,IC50,Nonstructural protein 1,1.67 µM (active)

# — ChEMBL document CHEMBL1201862, “PubChem BioAssay data set” (2004)
